{
  "source": "PubChem BioAssay (NCI)",
  "assay_in_all_cases": "NCI tumour cell line growth inhibition, 48 h",
  "key": {"SN12K1 renal": {"tested_on": "SN12K1 renal"}, "M19-MEL melanoma": {"tested_on": "M19-MEL melanoma"}, "P388/ADR leukemia": {"tested_on": "P388/ADR leukemia"}, "P388 leukemia": {"tested_on": "P388 leukemia"}, "HOP-18 NSCLC": {"tested_on": "HOP-18 NSCLC"}, "LXFL 529 NSCLC": {"tested_on": "LXFL 529 NSCLC"}, "RXF-631 renal": {"tested_on": "RXF-631 renal"}, "DMS 114 small cell lung": {"tested_on": "DMS 114 small cell lung"}},
  "note": "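Five compound concentrations were applied to cells in 96-well plates for 48 hours; endpoints were derived by simple linear interpolation of the resulting dose-response curve. TGI: total growth inhibition.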",
  "data": [
    {"smiles": "CC1C(=O)C(C)C(c2ccco2)N(N=O)C1c1ccco1", "note": "(configuration not stated)", "values": [
      {"measurement": "TGI", "setting": "SN12K1 renal", "value": "> 100", "unit": "µM"},
      {"measurement": "TGI", "setting": "M19-MEL melanoma", "value": "> 100", "unit": "µM"},
      {"measurement": "TGI", "setting": "P388/ADR leukemia", "value": "> 100", "unit": "µM"},
      {"measurement": "TGI", "setting": "P388 leukemia", "value": "> 100", "unit": "µM"},
      {"measurement": "TGI", "setting": "HOP-18 NSCLC", "value": "> 100", "unit": "µM"}
    ]},
    {"smiles": "C[n+]1c2ccccc2c(CNC(CS)C(=O)O)c2ccccc21", "note": "(configuration not stated)", "values": [
      {"measurement": "TGI", "setting": "M19-MEL melanoma", "value": 90.6, "unit": "µM"},
      {"measurement": "TGI", "setting": "LXFL 529 NSCLC", "value": "> 100", "unit": "µM"},
      {"measurement": "TGI", "setting": "RXF-631 renal", "value": 70.4, "unit": "µM"},
      {"measurement": "TGI", "setting": "HOP-18 NSCLC", "value": "> 100", "unit": "µM"}
    ]},
    {"smiles": "O=C(NC(Cc1ccc(I)cc1)C(=O)O)c1ccc(Cl)cc1", "note": "(configuration not stated)", "values": [
      {"measurement": "TGI", "setting": "SN12K1 renal", "value": "> 100", "unit": "µM"},
      {"measurement": "TGI", "setting": "M19-MEL melanoma", "value": "> 100", "unit": "µM"},
      {"measurement": "TGI", "setting": "P388/ADR leukemia", "value": "> 100", "unit": "µM"},
      {"measurement": "TGI", "setting": "P388 leukemia", "value": "> 100", "unit": "µM"},
      {"measurement": "TGI", "setting": "HOP-18 NSCLC", "value": "> 100", "unit": "µM"}
    ]},
    {"smiles": "CS(=O)(=O)OCCN(CCOS(C)(=O)=O)c1ccc(/C=N/Nc2ncnc3nc[nH]c23)cc1", "values": [
      {"measurement": "TGI", "setting": "M19-MEL melanoma", "value": 51, "unit": "µM"},
      {"measurement": "TGI", "setting": "DMS 114 small cell lung", "value": 26.2, "unit": "µM"},
      {"measurement": "TGI", "setting": "HOP-18 NSCLC", "value": 70.7, "unit": "µM"}
    ]},
    {"smiles": "Cc1c2cc[n+](C)cc2c(C)c2c1oc1ccccc12", "values": [
      {"measurement": "TGI", "setting": "M19-MEL melanoma", "value": 8.99, "unit": "µM"},
      {"measurement": "TGI", "setting": "LXFL 529 NSCLC", "value": 15.8, "unit": "µM"},
      {"measurement": "TGI", "setting": "DMS 114 small cell lung", "value": 7.86, "unit": "µM"},
      {"measurement": "TGI", "setting": "HOP-18 NSCLC", "value": "> 63.7", "unit": "µM"}
    ]},
    {"smiles": "O=C1OC2(OC2c2ccc(Cl)cc2)c2ccccc21", "note": "(configuration not stated)", "values": [
      {"measurement": "TGI", "setting": "M19-MEL melanoma", "value": "> 100", "unit": "µM"},
      {"measurement": "TGI", "setting": "LXFL 529 NSCLC", "value": 78.2, "unit": "µM"},
      {"measurement": "TGI", "setting": "DMS 114 small cell lung", "value": "> 100", "unit": "µM"}
    ]},
    {"smiles": "COc1cc([N+](=O)[O-])ccc1NC(=O)c1cccc([N+](=O)[O-])c1O", "values": [
      {"measurement": "TGI", "setting": "M19-MEL melanoma", "value": "> 100", "unit": "µM"},
      {"measurement": "TGI", "setting": "LXFL 529 NSCLC", "value": "> 100", "unit": "µM"},
      {"measurement": "TGI", "setting": "RXF-631 renal", "value": "> 100", "unit": "µM"},
      {"measurement": "TGI", "setting": "DMS 114 small cell lung", "value": "> 100", "unit": "µM"},
      {"measurement": "TGI", "setting": "HOP-18 NSCLC", "value": 61, "unit": "µM"}
    ]},
    {"smiles": "Cc1ccc(N=NC(C2=NC(=O)CS2)c2nc3ccccc3[nH]2)cc1", "note": "(configuration not stated)", "values": [
      {"measurement": "TGI", "setting": "M19-MEL melanoma", "value": "> 100", "unit": "µM"},
      {"measurement": "TGI", "setting": "LXFL 529 NSCLC", "value": "> 100", "unit": "µM"},
      {"measurement": "TGI", "setting": "DMS 114 small cell lung", "value": "> 100", "unit": "µM"}
    ]}
  ]
}
